Test results published in US9713651B2, “Compositions, methods, and systems for the synthesis and use of imaging agents” (Lantheus Medical Imaging, Inc., priority 2012, dated 2017).

Tested on: hepatocytes
Experiment: Metabolic profiling of imaging agents in cryopreserved hepatocytes (HPLC with radiodetection)
Assay type: in vitro ADME
Details: hepatocytes 1×10^6 cells/mL, 37° C./5% CO2; species and incubation time not given
Procedure: Cryopreserved hepatocytes were purchased from Celsis/In Vitro Technologies, Inc. (Baltimore, Md.) and stored at −150° C. prior to use. Multiple lots of hepatocytes for human (mixed sexes 5-donor pool), primate (male, rhesus monkey), dog (male, beagle), rabbit (male, New Zealand white) and rat (male, Sprague-Dawley) were used. On the day of the study, hepatocytes in cryopreserved vials were vented to release any liquid N2 then placed into a 37° C. water bath for 75-90 seconds to thaw. The hepatocytes were transferred into pre-warmed KHB and centrifuged for 5 min at 50×g. The supernatant was discarded and the hepatocytes re-suspended in KHB at a concentration of 1×10^6 cells/mL. Cell viability was confirmed by Trypan blue exclusion.
Test compounds were incubated in hepatocytes (1×10^6 cells/mL; 0.5 mL) were incubated for 0, 15, 30, 60 or 180 min at 37° C./5% CO2 then transferred directly into acetonitrile (1.0 mL), vortexed for 30 s and centrifuged at 2500×g for 20 min. The supernatant was then transferred to a new centrifuge tube, acetonitrile evaporated under a stream of nitrogen in a heating block at 37° C. and, following re-constitution in water, assayed by HPLC with radiodetection.
Extracted samples and standards were analyzed on an Agilent 1100 HPLC (Agilent Technologies, Burlington, Mass.) using a Phenomenex Luna C18 column (5μ; 4.6×150 mm), maintained at ambient temperature (25° C.), and a flow rate of 1.0 mL/min. Mobile phase A contained 0.1% formic acid in water, and mobile phase B contained 0.1% formic acid in acetonitrile. A linear gradient from 5 to 90% B over 15 min was used for elution. A 5 min post-time of 5% B was used to re-equilibrate the column. Radioactive products were recorded using in-line γ- or β-flow detectors (INUS, Tampa, Fla.).

| Compound | % Parent Remaining [%] |
| --- | --- |
| CC(C)(C)n1ncc(OCc2ccc(C#CCCF)cc2)c(Cl)c1=O [Example 43, 2-(tert-butyl)-4-chloro-5-((4-(4-fluorobut-1-yn-1-yl)benzyl)oxy)pyridazin-3(2H)-one] | 63 |
| CC(C)(C)n1ncc(OCc2ccc(OCCCF)c(Cl)c2)c(Cl)c1=O [Example 25, 2-(tert-butyl)-4-chloro-5-((3-chloro-4-(3-fluoropropoxyl)benzyl)oxy)pyridazin-3(2H)-one] | 71 |
| CC(C)(C)n1ncc(OCc2cccc(COCCF)c2)c(Cl)c1=O [Example 35, 2-(tert-butyl)-4-chloro-5-((3-((2-fluoroethoxy)methyl)benzyl)oxy)pyridazin-3(2H)-one] | 30 |
| Cc1c(OCc2ccc(COCCF)cc2)cnn(C(C)(C)C)c1=O [Example 40] | 34 |
| CC(C)n1ncc(OCc2ccc(COCCF)cc2)c(Cl)c1=O [Example 1, 4-chloro-5-((4-((2-fluoroethoxy)methyl)benzyl)oxy)-2-isopropylpyridazin-3(2H)-one] | 20 |
| CC(C)(C)n1ncc(OCc2ccc(C(=O)OCCF)cc2)c(Cl)c1=O [Example 45, 2-fluoroethyl 4-(((1-(tert-butyl)-5-chloro-6-oxo-1,6-dihydropyridazin-4-yl)oxy)methyl)benzoate] | 19 |
| CC(OCCF)c1ccc(COc2cnn(C(C)(C)C)c(=O)c2Cl)cc1 (stereo not drawn) [Example 16, 2-(tert-butyl)-4-chloro-5-((4-(1-(2-fluoroethoxyl)ethyl)benzyl)oxy)pyridazin-3(2H)-one] | 20 |
| [2H]C([2H])(OCCF)c1ccc(COc2cnn(C(C)(C)C)c(=O)c2Cl)cc1 [Example 9, 2-(tert-butyl)-4-chloro-5-((4-((2-fluoroethoxy)-d2-methyl)benzyl)oxy)pyridazin-3(2H)-one] | 73 |
| CC(C)(C)n1ncc(OCc2ccc([Si](F)(C(C)(C)C)C(C)(C)C)cc2)c(Cl)c1=O [Example 62B, 2-(tert-butyl)-4-chloro-5-((4-(di-tert-butylfluorosilyl)benzyl)oxy)pyridazin-3 (2H)-one] | 98 |
| CC(C)(C)n1ncc(CCc2ccc(COCCF)cc2)c(Cl)c1=O [Example 61] | 6 |

Continued, values first:

| % Parent Remaining [%] | Compound |
| --- | --- |
| 31 | CC(C)(C)n1ncc(OCc2ccc(C(=O)OCCCF)cc2)c(Cl)c1=O [Example 57B, 3-fluoropropyl 4-(((1-(tert-butyl)-5-chloro-6-oxo-1,6-dihydropyridazin-4-yl)oxy)methyl)benzoate] |
| 95 | CC(C)(C)n1ncc(OCc2ccc(-c3cnc(F)nc3)cc2)c(Cl)c1=O [Example 48C, 2-(tert-butyl)-4-chloro-5-((4-(2-fluoropyrimidin-5-yl)benzyl)oxy)pyridazin-3(2H)-one] |
